The record followed here is publication PMC10460844, “Real‐Time Monitoring of Multitarget Antimicrobial Mechanisms of Peptoids Using Label‐Free Imaging with Optical Diffraction Tomography” (Advanced Science, 2023).

As usually defined, the HC50 is the concentration giving 50% haemolysis. A high value points to weaker haemolysis.

Numbered stars: 1 amine (or outer) side, 2 acyl side, 3 side chain; on linkers, the order of the positions; unused ones are H or OH. Square brackets hold non-standard residues; d marks the D form. Peptide text beside a SMILES is read from it. Gly(N(CH2)2(3-indolyl)) = O=C(O)CNCCc1c[nH]c2ccccc12; Nspe = C[C@H](NCC(=O)O)c1ccccc1; X1 = O=C(CN(CCCCO)[*:1])[*:2]; Nlys = NCCCCNCC(=O)O

The first data set relates to rat erythrocytes. In words: Hemolysis assay. Format: cell-based.
Conditions: not given
How it is done:
The hemolysis assay was performed using rat erythrocytes in phosphate‐buffered saline (PBS), as reported by Mendes et al.^[ [45] ^] Animal studies were approved by the Laboratory Animal Resource Center of Gwangju Institute of Science and Technology. Blood was collected from a 13‐week‐old male Sprague‐Dawley rat in tubes containing 158 USP units of sodium heparin to prevent coagulation and centrifuged at 1000 rpm for 10 min at 4 °C. Plasma was removed carefully and erythrocyte pellets were washed three times with PBS (35 mM phosphate, pH 7.4, 150 mM NaCl). Next, 150 µL of a 10% erythrocyte suspension was mixed with 50 µL of serially diluted peptoids (0–100 µM) in a 96‐well black polypropylene plates (Greiner, Kremsmünster, Austria). Untreated erythrocytes and cells lysed by the addition of 1% Triton X‐100 were used as negative and positive controls, respectively, with the 1% Triton X‐100‐treated wells being accepted to represent 100% hemolysis. The reaction mixture was incubated at 37 °C for 60 min, and the plates were centrifuged at 1000 rpm for 15 min. Aliquots (150 µL) of the supernatant were transferred to fresh 96‐well plates, and the absorbance of each well was measured at 540 nm using a microplate reader. Hemolysis induced by peptoids was calculated as the percentage value of Triton X‐100 lysed cells. The percentage of hemolysis by the extracts was calculated according to the following formula: % hemolysis = [(Abs 540 nm in the peptoid solution – Abs 540 nm in PBS) / (Abs 540 nm in 1% Triton X‐100 – Abs 540 nm in PBS)] × 100. HC10 and HC50 were defined as the peptoid concentrations that caused 10% and 50% hemolysis in rat erythrocytes, respectively. H max indicates the percentage of hemolysis observed at the maximum peptoid concentration, 100 µM throughout this study.
As for `C[C@@H](c1ccccc1)N(CC(=O)N(CCCCN)CC(=O)N(CC(=O)N(CC(=O)N(CCCCN)CC(=O)N(CC(=O)N(CC(=O)N(CCCCN)CC(=O)N(CC(=O)N(CC(=O)N(CCc1c[nH]c2ccccc12)CC(N)=O)[C@@H](C)c1ccccc1)[C@@H](C)c1ccccc1)[C@@H](C)c1ccccc1)[C@@H](C)c1ccccc1)[C@@H](C)c1ccccc1)[C@@H](C)c1ccccc1)C(=O)CN(C(=O)CN(CCCCN)C(=O)CNCCc1c[nH]c2ccccc12)[C@@H](C)c1ccccc1` [peptoid 5] (H-[Gly(N(CH2)2(3-indolyl))][Nlys][Nspe][Nspe][Nlys][Nspe][Nspe][Nlys][Nspe][Nspe][Nlys][Nspe][Nspe][Gly(N(CH2)2(3-indolyl))]-NH2), the “Hmax (100 µM)” value stood at 108.1±2.7%.

Still in this data set, the particulars now being: pH 7.4.
Molecule `C[C@@H](c1ccccc1)N(CC(=O)N(CCCCN)CC(=O)N(CC(=O)N(CC(=O)N(CCCCN)CC(=O)N(CC(=O)N(CC(=O)N(CCCCN)CC(=O)N(CC(=O)N(CC(=O)N(CCc1c[nH]c2ccccc12)CC(N)=O)[C@@H](C)c1ccccc1)[C@@H](C)c1ccccc1)[C@@H](C)c1ccccc1)[C@@H](C)c1ccccc1)[C@@H](C)c1ccccc1)[C@@H](C)c1ccccc1)C(=O)CN(C(=O)CN(CCCCN)C(=O)CNCCc1c[nH]c2ccccc12)[C@@H](C)c1ccccc1` [peptoid 5] (H-[Gly(N(CH2)2(3-indolyl))][Nlys][Nspe][Nspe][Nlys][Nspe][Nspe][Nlys][Nspe][Nspe][Nlys][Nspe][Nspe][Gly(N(CH2)2(3-indolyl))]-NH2) came in with an HC10 below 6.3 µM and an HC50 of 15.3 µM.

Tested on in another data set: not listed separately
The experiment in a line: Analytical reversed-phase HPLC elution (hydrophobicity). Format: physicochemical. Conditions: Table S1; analytical RP-HPLC, SunFire C18, water/ACN + 0.1% TFA, 5 to 100% B linear over 30 min, 1 mL/min, UV 220 nm; approximate comparison of hydrophobicity. How it is done:
7. HPLC chromatogram, retention time (tR), and LC-MS data
HPLC analysis of peptoids was conducted using a Waters HPLC system equipped with a Waters 2489 UV/Visible Detector, 1525 Binary HPLC Pump, 2707 Autosampler, 5CH column oven, and a C18 column (SunFire C18, 4.6 × 250 mm, 5 μm; Waters Corp., Milford, MA, USA). The mobile phases were deionized water (A, with + 0.1% TFA) and acetonitrile (ACN; B, with + 0.1% TFA). Before sample injection, the column was conditioned with 5% B for 10 min. Then, the mobile phase was maintained at 5% B for 2 min, followed by increasing B to 100% using a linear gradient over 30 min. At this point, 100% B was maintained for 5 additional min. The flow rate of the mobile phase was 1 mL/min. The sample was detected by measuring absorbance at 220 nm. […]
For `C[C@@H](c1ccccc1)N(CC(=O)N(CCCCN)CC(=O)N(CC(=O)N(CC(=O)N(CCCCN)CC(=O)N(CC(=O)N(CC(=O)N(CCCCN)CC(=O)N(CC(=O)N(CC(=O)N(CCc1c[nH]c2ccccc12)CC(N)=O)[C@@H](C)c1ccccc1)[C@@H](C)c1ccccc1)[C@@H](C)c1ccccc1)[C@@H](C)c1ccccc1)[C@@H](C)c1ccccc1)[C@@H](C)c1ccccc1)C(=O)CN(C(=O)CN(CCCCN)C(=O)CNCCc1c[nH]c2ccccc12)[C@@H](C)c1ccccc1` [peptoid 5] (H-[Gly(N(CH2)2(3-indolyl))][Nlys][Nspe][Nspe][Nlys][Nspe][Nspe][Nlys][Nspe][Nspe][Nlys][Nspe][Nspe][Gly(N(CH2)2(3-indolyl))]-NH2), the HPLC elution came to 58.6 % MeCN. Same read-out and setting: then `C[C@@H](c1ccccc1)N(CC(N)=O)C(=O)CN(CCCCN)C(=O)CN(C(=O)CN(C(=O)CN(CCCCN)C(=O)CN(C(=O)CN(CCCCN)C(=O)CN(CCCCN)C(=O)CN(C(=O)CN(C(=O)CNCCCCN)[C@@H](C)c1ccccc1)[C@@H](C)c1ccccc1)[C@@H](C)c1ccccc1)[C@@H](C)c1ccccc1)[C@@H](C)c1ccccc1` [peptoid 51], with 45.3 % MeCN; and `NC(=O)CN(CCc1c[nH]c2ccccc12)C(=O)CN(CCc1c[nH]c2ccccc12)C(=O)CN(CCCCO)C(=O)CN(CCc1c[nH]c2ccccc12)C(=O)CN(CCc1c[nH]c2ccccc12)C(=O)CN(CCCCO)C(=O)CN(CCc1c[nH]c2ccccc12)C(=O)CN(CCc1c[nH]c2ccccc12)C(=O)CN(CCCCO)C(=O)CN(CCc1c[nH]c2ccccc12)C(=O)CN(CCc1c[nH]c2ccccc12)C(=O)CNCCCCO` [peptoid 65] (H-[X1][Gly(N(CH2)2(3-indolyl))][Gly(N(CH2)2(3-indolyl))][X1][Gly(N(CH2)2(3-indolyl))][Gly(N(CH2)2(3-indolyl))][X1][Gly(N(CH2)2(3-indolyl))][Gly(N(CH2)2(3-indolyl))][X1][Gly(N(CH2)2(3-indolyl))][Gly(N(CH2)2(3-indolyl))]-NH2), with 66.7 % MeCN.

Turning to `C[C@H](NCC(=O)N(CCCCN)CC(=O)N(CC(=O)N(CC(=O)N(CCCCN)CC(=O)N(CC(=O)N(CC(=O)N(CCCCN)CC(=O)N(CCCCN)CC(=O)N(CC(=O)N(CCCCN)CC(=O)N(CC(N)=O)[C@@H](C)c1ccccc1)[C@@H](C)c1ccccc1)[C@@H](C)c1ccccc1)[C@@H](C)c1ccccc1)[C@@H](C)c1ccccc1)[C@@H](C)c1ccccc1)c1ccccc1` [peptoid 54] (H-[Nspe][Nlys][Nspe][Nspe][Nlys][Nspe][Nspe][Nlys][Nlys][Nspe][Nlys][Nspe]-NH2), the HPLC elution is 48.1 % MeCN. For the molecule `C[C@@H](c1ccccc1)N(CC(N)=O)C(=O)CN(CCCCN)C(=O)CN(C(=O)CN(C(=O)CN(CCCCN)C(=O)CN(C(=O)CN(C(=O)CN(CCCCN)C(=O)CN(C(=O)CN(CCCCN)C(=O)CNCCCCN)[C@@H](C)c1ccccc1)[C@@H](C)c1ccccc1)[C@@H](C)c1ccccc1)[C@@H](C)c1ccccc1)[C@@H](C)c1ccccc1` [peptoid 52], the HPLC elution amounted to 46.9 % MeCN. For `C[C@@H](c1ccccc1)N(CC(=O)N(CCCCN)CC(=O)N(CC(=O)N(CC(=O)N(CCCCN)CC(=O)N(CC(=O)N(CC(=O)N(CCCCN)CC(=O)N(CCCCN)CC(N)=O)[C@@H](C)c1ccccc1)[C@@H](C)c1ccccc1)[C@@H](C)c1ccccc1)[C@@H](C)c1ccccc1)C(=O)CN(C(=O)CN(CCCCN)C(=O)CNCCc1c[nH]c2ccccc12)[C@@H](C)c1ccccc1` [peptoid 57] (H-[Gly(N(CH2)2(3-indolyl))][Nlys][Nspe][Nspe][Nlys][Nspe][Nspe][Nlys][Nspe][Nspe][Nlys][Nlys]-NH2), the HPLC elution is recorded as 49.1 % MeCN.

Take `C[C@@H](c1ccccc1)N(CC(N)=O)C(=O)CN(CCCCN)C(=O)CN(C(=O)CN(CCCCN)C(=O)CN(CCCCN)C(=O)CN(C(=O)CN(C(=O)CN(CCCCN)C(=O)CN(C(=O)CN(C(=O)CNCCCCN)[C@@H](C)c1ccccc1)[C@@H](C)c1ccccc1)[C@@H](C)c1ccccc1)[C@@H](C)c1ccccc1)[C@@H](C)c1ccccc1` [peptoid 50]: the HPLC elution amounted to 46.1 % MeCN.

For the molecule `C[C@H](NCC(=O)N(CCCCN)CC(=O)N(CC(=O)N(CC(=O)N(CCCCN)CC(=O)N(CCCCN)CC(=O)N(CC(=O)N(CCCCN)CC(=O)N(CC(=O)N(CC(=O)N(CCCCN)CC(=O)N(CC(N)=O)[C@@H](C)c1ccccc1)[C@@H](C)c1ccccc1)[C@@H](C)c1ccccc1)[C@@H](C)c1ccccc1)[C@@H](C)c1ccccc1)[C@@H](C)c1ccccc1)c1ccccc1` [peptoid 55] (H-[Nspe][Nlys][Nspe][Nspe][Nlys][Nlys][Nspe][Nlys][Nspe][Nspe][Nlys][Nspe]-NH2), the HPLC elution was found to be 47.2 % MeCN. As to `C[C@H](NCC(=O)N(CCCCN)CC(=O)N(CCCCN)CC(=O)N(CC(=O)N(CCCCN)CC(=O)N(CC(=O)N(CC(=O)N(CCCCN)CC(=O)N(CC(=O)N(CC(=O)N(CCCCN)CC(=O)N(CC(N)=O)[C@@H](C)c1ccccc1)[C@@H](C)c1ccccc1)[C@@H](C)c1ccccc1)[C@@H](C)c1ccccc1)[C@@H](C)c1ccccc1)[C@@H](C)c1ccccc1)c1ccccc1` [peptoid 56] (H-[Nspe][Nlys][Nlys][Nspe][Nlys][Nspe][Nspe][Nlys][Nspe][Nspe][Nlys][Nspe]-NH2), the HPLC elution is reported as 48.0 % MeCN.

For the molecule `C[C@H](NCC(=O)N(CCCCN)CC(=O)N(CC(=O)N(CC(=O)N(CCCCN)CC(=O)N(CC(=O)N(CC(=O)N(CCCCN)CC(=O)N(CC(=O)N(CC(=O)N(CCCCN)CC(=O)N(CCCCN)CC(N)=O)[C@@H](C)c1ccccc1)[C@@H](C)c1ccccc1)[C@@H](C)c1ccccc1)[C@@H](C)c1ccccc1)[C@@H](C)c1ccccc1)[C@@H](C)c1ccccc1)c1ccccc1` [peptoid 53] (H-[Nspe][Nlys][Nspe][Nspe][Nlys][Nspe][Nspe][Nlys][Nspe][Nspe][Nlys][Nlys]-NH2), the HPLC elution is 48.5 % MeCN.

As to `C[C@@H](c1ccccc1)N(CC(N)=O)C(=O)CN(CCCCN)C(=O)CN(C(=O)CN(CCCCN)C(=O)CN(CCCCN)C(=O)CN(C(=O)CN(C(=O)CN(CCCCN)C(=O)CN(C(=O)CN(C(=O)CN(CCCCN)C(=O)CNCCc1c[nH]c2ccccc12)[C@@H](C)c1ccccc1)[C@@H](C)c1ccccc1)[C@@H](C)c1ccccc1)[C@@H](C)c1ccccc1)[C@@H](C)c1ccccc1` [peptoid 58], the HPLC elution was found to be 48.7 % MeCN. Take `C[C@@H](c1ccccc1)N(CC(N)=O)C(=O)CN(CCCCN)C(=O)CN(C(=O)CN(C(=O)CN(CCCCN)C(=O)CN(C(=O)CN(CCCCN)C(=O)CN(CCCCN)C(=O)CN(C(=O)CN(C(=O)CN(CCCCN)C(=O)CNCCc1c[nH]c2ccccc12)[C@@H](C)c1ccccc1)[C@@H](C)c1ccccc1)[C@@H](C)c1ccccc1)[C@@H](C)c1ccccc1)[C@@H](C)c1ccccc1` [peptoid 59]: the HPLC elution amounted to 47.8 % MeCN. For the molecule `C[C@@H](c1ccccc1)N(CC(=O)N(CCCCO)CC(=O)N(CCc1c[nH]c2ccccc12)CC(=O)N(CCc1c[nH]c2ccccc12)CC(N)=O)C(=O)CN(CCCCO)C(=O)CN(CCCCO)C(=O)CN(C(=O)CN(C(=O)CN(CCCCO)C(=O)CN(C(=O)CN(C(=O)CNCCCCO)[C@@H](C)c1ccccc1)[C@@H](C)c1ccccc1)[C@@H](C)c1ccccc1)[C@@H](C)c1ccccc1` [peptoid 66], the HPLC elution came to 64.7 % MeCN. Consider `C[C@@H](c1ccccc1)N(CC(N)=O)C(=O)CN(CCCCN)C(=O)CN(C(=O)CN(C(=O)CN(CCCCN)C(=O)CN(C(=O)CN(C(=O)CN(CCCCN)C(=O)CN(C(=O)CN(CCCCN)C(=O)CN(CCCCN)C(=O)CNCCc1c[nH]c2ccccc12)[C@@H](C)c1ccccc1)[C@@H](C)c1ccccc1)[C@@H](C)c1ccccc1)[C@@H](C)c1ccccc1)[C@@H](C)c1ccccc1` [peptoid 60], for which the HPLC elution is on record as 48.6 % MeCN.
